Source: PMC6851853, “Characterization of P. falciparum dipeptidyl aminopeptidase 3 specificity identifies differences in amino acid preferences between peptide‐based substrates and covalent inhibitors” (The Febs Journal, 2019)

How the values were obtained:
[1] = target: T1, DPAP1 (Plasmodium falciparum, UniProt Q8IIJ9); assay: biochemical; parameters: species or system P. falciparum parasite lysate; continuous fluorogenic assay, time-dependent inactivation of DPAP1 in diluted parasite lysate, Pro-Arg-AMC 20 uM; settings: for kinact: read-out: DPAP1 / k inact ·10^3; for kinact/KI: read-out: DPAP1 / k inact/K i ·10^−3 (M ^−1·s^−1)
T1 sequence (Q8IIJ9 28-209): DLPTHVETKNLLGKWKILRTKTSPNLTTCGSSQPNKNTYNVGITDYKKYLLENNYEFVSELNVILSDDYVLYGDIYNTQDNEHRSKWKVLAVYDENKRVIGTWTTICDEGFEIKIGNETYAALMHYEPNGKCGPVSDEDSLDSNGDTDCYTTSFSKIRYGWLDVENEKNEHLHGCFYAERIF
T1 sequence (Q8IIJ9 370-599): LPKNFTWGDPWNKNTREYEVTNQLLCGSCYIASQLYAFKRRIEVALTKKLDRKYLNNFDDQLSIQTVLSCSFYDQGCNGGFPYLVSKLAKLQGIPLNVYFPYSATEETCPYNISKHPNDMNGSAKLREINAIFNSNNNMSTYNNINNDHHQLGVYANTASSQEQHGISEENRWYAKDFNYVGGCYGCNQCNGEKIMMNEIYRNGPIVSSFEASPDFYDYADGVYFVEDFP
T1 sequence (Q8IIJ9 600-700): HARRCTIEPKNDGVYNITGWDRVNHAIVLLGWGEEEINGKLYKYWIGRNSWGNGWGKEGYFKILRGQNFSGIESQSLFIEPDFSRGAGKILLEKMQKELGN
Method: (§1) Inhibition of DPAP1 was directly measured in parasite lysates diluted 100‐fold in assay buffer using the DPAP1‐selective substrate Pro‐Arg‐AMC 42; 0.2 nM of […] was used for these inhibition studies. Note that because DPAP1 inhibition was directly measured in parasite lysates, inhibitors might have been partially inactivated through the action of aminopeptidases present in the lysates during the course of the assay. Therefore, the potency of the inhibitors might have been underestimated. […] The data were analysed according to the irreversible inhibition model shown in Eqn. 1. First, the progress curves (fluorescent units vs. time) were fitted to Eqn. 5, where F is the measured fluorescence at time t, F 0 the initial fluorescence, V 0 the initial turnover rate, and k obs the observed […] rate constant of inhibition measured at each inhibitor concentration 64.

[2] = target: T2, DPAP3 (Plasmodium falciparum, UniProt Q8I1Y2); assay: biochemical; parameters: gene PF3D7_0404700; recombinant, baculovirus/SF9 insect cells, purified from culture supernatant by ion exchange, Ni-NTA and size exclusion; active-site titrated; continuous fluorogenic assay, time-dependent inactivation of 0.2 nM recombinant DPAP3, Met-nLeu(o-Bzl)-ACC 2.2 uM; settings: for kinact: read-out: DPAP3 / k inact ·10^3; for kinact/KI: read-out: DPAP3 / k inact/K i ·10^−3 (M ^−1·s^−1)
Method: The data were analysed according to the irreversible inhibition model shown in Eqn. 1. First, the progress curves (fluorescent units vs. time) were fitted to Eqn. 5, where F is the measured fluorescence at time t, F 0 the initial fluorescence, V 0 the initial turnover rate, and k obs the observed […] rate constant of inhibition measured at each inhibitor concentration 64. […] The inhibition constants are reported in Fig. 3C and Table 2 (See also Fig. S2 for representative fits). Only one inhibitor, containing an amino‐1‐methyl‐benzyl (Amb) group in P2, was not able to inhibit DPAP3 in a time‐dependent manner under our assay conditions (Fig. 3D). This is probably due to the fact that this extended and rigid P2 AA (Fig. 3E) might prevent proper positioning of the [compound left out] group into the active site of DPAP3 to allow covalent modification of the catalytic cysteine. For this compound, a K i value for reversible inhibition was measured.
Target sequence in this assay (Q8I1Y2 entry or part of it): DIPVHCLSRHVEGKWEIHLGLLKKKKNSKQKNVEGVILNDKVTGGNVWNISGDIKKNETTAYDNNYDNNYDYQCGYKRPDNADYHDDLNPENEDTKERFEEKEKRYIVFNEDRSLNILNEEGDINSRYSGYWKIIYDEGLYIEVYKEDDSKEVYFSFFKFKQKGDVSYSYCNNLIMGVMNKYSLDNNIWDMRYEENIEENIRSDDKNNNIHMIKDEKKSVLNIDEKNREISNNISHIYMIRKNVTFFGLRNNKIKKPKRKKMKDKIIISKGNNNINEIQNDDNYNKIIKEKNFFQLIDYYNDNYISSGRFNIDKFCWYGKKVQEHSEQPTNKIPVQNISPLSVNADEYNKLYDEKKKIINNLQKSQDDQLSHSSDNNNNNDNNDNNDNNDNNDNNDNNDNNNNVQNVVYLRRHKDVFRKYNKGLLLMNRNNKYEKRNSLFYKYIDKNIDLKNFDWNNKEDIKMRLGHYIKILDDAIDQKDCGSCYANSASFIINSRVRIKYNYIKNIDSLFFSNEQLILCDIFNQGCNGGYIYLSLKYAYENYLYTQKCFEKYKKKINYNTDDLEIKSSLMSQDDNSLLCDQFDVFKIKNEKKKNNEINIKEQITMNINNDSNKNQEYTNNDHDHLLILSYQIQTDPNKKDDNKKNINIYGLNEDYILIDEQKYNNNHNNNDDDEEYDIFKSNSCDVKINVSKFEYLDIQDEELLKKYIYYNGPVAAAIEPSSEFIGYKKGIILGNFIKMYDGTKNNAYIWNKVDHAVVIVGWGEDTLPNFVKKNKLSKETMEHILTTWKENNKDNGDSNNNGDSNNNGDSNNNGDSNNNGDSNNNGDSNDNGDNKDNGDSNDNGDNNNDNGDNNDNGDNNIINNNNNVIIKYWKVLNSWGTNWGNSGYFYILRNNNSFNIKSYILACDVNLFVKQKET

[3] = target: T3, CatC (bovine) (Bos taurus, UniProt Q3ZCJ8); assay: biochemical; parameters: continuous fluorogenic assay, time-dependent inactivation of 0.2 nM CatC, Gly-Arg-AMC 15 uM; settings: for kinact: read-out: CatC / k inact ·10^3; for kinact/KI: read-out: CatC / k inact/K i ·10^−3 (M ^−1·s^−1)
T3 construct: gene CTSC; native, purified to homogeneity from bovine spleen
Method: as §1

[4] = target: T2, DPAP3; assay: cell-based; parameters: native enzyme in live parasites (mature schizonts); species or system P. falciparum mature schizonts in red blood cells; competitive activity-based probe FY01 labelling in intact parasites, in-gel fluorescence densitometry; settings: live parasites, 30 min pretreatment
Method: Live parasites were treated with different concentrations of inhibitor for 30 min, and the residual level of DPAPs and FPs activities were labelled with FY01 and quantified by densitometry (Fig. 6A). […] Compounds with a P2 Trp or Tyr(NO2) are highly specific for DPAP3 in intact parasites. […] Inhibitors need to cross four membranes to reach DPAP3: the RBC, parasitophorous vacuole and parasite plasma membranes, plus the membrane of the apical organelle where DPAP3 resides 21. (The parasitophorous vacuole is a membrane‐bound structure within which the parasite grows and multiplies isolated from the RBC cytosol.) However, crossing of the parasitophorous vacuole membrane is not likely to be a limiting factor to reach DPAP3 since this membrane is generally permeable to small molecules. It is also likely that the apparent increased potency of Trp‐hPG‐VS in live parasites might be due to its accumulation into the DPAP3 acidic organelle via protonation of its free amine. However, we predict that this lysosomotropic effect likely occurs for all DPAP inhibitors presented here.  Figure 6 Selective inhibition of DPAP1 or DPAP3 in live parasites. Intact mature schizonts were pretreated for 30 min with increasing concentrations of inhibitor followed by 1 h treatment with FY01. Samples were then run in an SDS/PAGE gel and the in‐gel fluorescence measured using a fluorescence scanner. (A) Representative gel images obtained for each of the inhibitors. Fluorescent bands corresponding to the different cysteine proteases labelled by the probe are indicated with arrowheads (DPAP3, red; FPs, green; DPAP1, blue). (B) The fluorescence intensity of each of the indicated bands was quantified by densitometry using ImageJ, and the fluorescence values normalized to the DMSO control. […] Three technical replicates were performed; dose responses for a representative replicate are shown.
Target sequence in this assay (Q8I1Y2 entry or part of it): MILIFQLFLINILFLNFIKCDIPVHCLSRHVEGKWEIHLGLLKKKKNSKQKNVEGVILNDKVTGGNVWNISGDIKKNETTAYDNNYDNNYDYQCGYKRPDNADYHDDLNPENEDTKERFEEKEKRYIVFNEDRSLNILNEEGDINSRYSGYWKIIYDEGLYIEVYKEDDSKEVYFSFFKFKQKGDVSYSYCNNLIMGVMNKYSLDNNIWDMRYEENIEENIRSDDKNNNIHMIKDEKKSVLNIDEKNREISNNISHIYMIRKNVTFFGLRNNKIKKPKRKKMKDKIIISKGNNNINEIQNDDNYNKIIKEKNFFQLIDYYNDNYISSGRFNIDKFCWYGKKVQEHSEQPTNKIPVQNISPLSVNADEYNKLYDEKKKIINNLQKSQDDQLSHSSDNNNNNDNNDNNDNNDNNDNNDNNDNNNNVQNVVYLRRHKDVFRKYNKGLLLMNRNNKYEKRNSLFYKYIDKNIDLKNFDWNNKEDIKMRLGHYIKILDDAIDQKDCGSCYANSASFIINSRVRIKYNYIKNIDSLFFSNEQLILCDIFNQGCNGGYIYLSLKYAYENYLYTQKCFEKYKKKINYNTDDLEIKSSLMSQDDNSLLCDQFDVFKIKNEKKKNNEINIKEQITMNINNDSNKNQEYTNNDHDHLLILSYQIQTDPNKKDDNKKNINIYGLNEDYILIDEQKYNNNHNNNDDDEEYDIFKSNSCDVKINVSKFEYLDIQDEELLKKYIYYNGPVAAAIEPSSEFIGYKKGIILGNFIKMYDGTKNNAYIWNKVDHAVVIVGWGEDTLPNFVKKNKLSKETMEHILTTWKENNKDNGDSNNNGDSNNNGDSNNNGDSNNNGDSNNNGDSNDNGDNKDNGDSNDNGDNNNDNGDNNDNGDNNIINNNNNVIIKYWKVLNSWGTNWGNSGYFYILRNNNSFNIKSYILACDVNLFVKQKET

T3 sequence (Q3ZCJ8 25-134): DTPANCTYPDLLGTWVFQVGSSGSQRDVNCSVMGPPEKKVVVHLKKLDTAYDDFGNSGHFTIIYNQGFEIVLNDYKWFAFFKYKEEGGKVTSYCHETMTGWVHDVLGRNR
T3 sequence (Q3ZCJ8 231-394): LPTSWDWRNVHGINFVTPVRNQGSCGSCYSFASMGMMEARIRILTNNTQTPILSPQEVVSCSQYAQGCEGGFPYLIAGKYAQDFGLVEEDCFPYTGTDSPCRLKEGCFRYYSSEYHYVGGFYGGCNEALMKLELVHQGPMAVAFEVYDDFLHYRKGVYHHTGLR
T3 sequence (Q3ZCJ8 395-463): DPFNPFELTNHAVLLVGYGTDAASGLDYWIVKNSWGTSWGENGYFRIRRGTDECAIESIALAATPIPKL

N[C@@H](Cc1c[nH]c2ccccc12)C(=O)N[C@H](/C=C/S(=O)(=O)c1ccccc1)CCc1ccccc1 [L‐Trp‐hPhe‐VS]
kinact [1]: 0.0017 ± 0.0001 s⁻¹
kinact/KI [1]: 3200 ± 300 M⁻¹ s⁻¹
kinact [2]: 0.0033 ± 0.0004 s⁻¹
kinact/KI [2]: 52000 ± 7000 M⁻¹ s⁻¹
kinact [3]: 0.0022 ± 9e-05 s⁻¹
kinact/KI [3]: 131000 ± 15000 M⁻¹ s⁻¹

N[C@H](Cc1c[nH]c2ccccc12)C(=O)N[C@H](/C=C/S(=O)(=O)c1ccccc1)CCc1ccccc1 [D‐Trp‐hPhe‐VS]
kinact [1]: 0.0027 ± 0.0002 s⁻¹
kinact/KI [1]: 26 ± 1 M⁻¹ s⁻¹
kinact [2]: 0.0017 ± 0.0006 s⁻¹
kinact/KI [2]: 320 ± 80 M⁻¹ s⁻¹
kinact [3]: 0.0026 ± 0.0001 s⁻¹
kinact/KI [3]: 620 ± 70 M⁻¹ s⁻¹

N[C@@H](Cc1ccc(O)c([N+](=O)[O-])c1)C(=O)N[C@H](/C=C/S(=O)(=O)c1ccccc1)CCCCOCc1ccccc1 [Tyr(NO2)‐nLeu(o‐Bzl)‐VS]
kinact [1]: 0.0026 ± 0.0003 s⁻¹
kinact/KI [1]: 1100 ± 300 M⁻¹ s⁻¹
kinact [2]: 0.0027 ± 0.0002 s⁻¹
kinact/KI [2]: 51000 ± 10000 M⁻¹ s⁻¹
kinact [3]: 0.0029 ± 0.0002 s⁻¹
kinact/KI [3]: 380 ± 50 M⁻¹ s⁻¹
IC50 [4]: 730 ± 170 nM

O=C(N[C@H](/C=C/S(=O)(=O)c1ccccc1)CCCCOCc1ccccc1)[C@@H]1CCCCN1 [hPro‐nLeu(o‐Bzl)‐VS]
kinact [1]: 0.0029 ± 0.0003 s⁻¹
kinact/KI [1]: 3.56e+06 ± 150000 M⁻¹ s⁻¹
kinact [2]: 0.002 ± 0.0001 s⁻¹
kinact/KI [2]: 53000 ± 6500 M⁻¹ s⁻¹
kinact [3]: 0.00167 ± 3e-05 s⁻¹
kinact/KI [3]: 150000 ± 6000 M⁻¹ s⁻¹

CCC[C@H](N)C(=O)N[C@H](/C=C/S(=O)(=O)c1ccccc1)CCc1ccccc1 [nVal‐hPhe‐VS]
kinact [1]: 0.002 ± 0.0001 s⁻¹
kinact/KI [1]: 3.16e+06 ± 750000 M⁻¹ s⁻¹
kinact [2]: 0.0026 ± 0.0004 s⁻¹
kinact/KI [2]: 940000 ± 160000 M⁻¹ s⁻¹
kinact [3]: 0.0022 ± 0.0001 s⁻¹
kinact/KI [3]: 5.83e+06 ± 970000 M⁻¹ s⁻¹

N[C@@H](Cc1ccc2ccccc2c1)C(=O)N[C@H](/C=C/S(=O)(=O)c1ccccc1)CCc1ccccc1 [2Nal‐hPhe‐VS]
kinact [1]: 0.0067 ± 0.0002 s⁻¹
kinact/KI [1]: 200 ± 5 M⁻¹ s⁻¹
kinact [2]: 0.00259 ± 7e-05 s⁻¹
kinact/KI [2]: 10200 ± 500 M⁻¹ s⁻¹
kinact [3]: 0.0037 ± 0.0002 s⁻¹
kinact/KI [3]: 900 ± 100 M⁻¹ s⁻¹

O=C(N[C@H](C=CS(=O)(=O)c1ccccc1)CCc1ccccc1)[C@@H]1CCCN1 [Pro‐hPhe‐VS]
kinact [1]: 0.0021 ± 0.0002 s⁻¹
kinact/KI [1]: 470000 ± 35000 M⁻¹ s⁻¹
kinact [2]: 0.0035 ± 0.0002 s⁻¹
kinact/KI [2]: 4100 ± 300 M⁻¹ s⁻¹
kinact [3]: 0.00145 ± 7e-05 s⁻¹
kinact/KI [3]: 42000 ± 5000 M⁻¹ s⁻¹
